Measured values taken from patent publication US11926643B2, “Heterocyclic GLP-1 agonists” (Gasherbrum Bio, Inc., priority 2020, dated 2024).
Like-named read-outs stand apart in the source and are kept apart here.

Target: GLP-1 Receptor (Homo sapiens, UniProt P43220)
Test: GLP-1R agonist cAMP stimulation assay (Method 3, HEK293/GLP1R/CRE-LUC, HDB)
Assay type: cell-based
Settings: HDB HEK293/CRE-Luc cell line
Experimental: The methodology for detection of cAMP using EFC requires incubation with 20 μL of cAMP XS+ED/CL lysis cocktail for one hour followed by incubation with 20 μL cAMP XS+EA reagent for three hours at room temperature. Microplates are read following signal generation with a PerkinElmer Envision instrument utilizing chemiluminescent signal detection. Compound activity is analyzed using CBIS data analysis suite (ChemInnovation, CA). Percentage activity is calculated using the following formula: % Activity=100%×(mean RLU of test sample−mean RLU of vehicle control)/(mean RLU of MAX control−mean RLU of vehicle control)) Method 3: Activation of GLP-1 receptor is known to stimulate cyclic AMP (cAMP) production in cells which indicates primary coupling to the Gαs subunit of the G protein heterotrimeric complex.
To optimize functional activity directed toward Gαs coupling, a HEK293/CRE-Luc cell line developed by HDB stably expressing the GLP-1 Receptor was used. 200× concentration of compound working solutions were prepared (Agilent Technologies Bravo) with 1/2 log serial dilution in 384-well Echo LDV plate (Labcyte, Cat #LP-0200). 50 nL/well 200× concentration of compound working solutions were moved to 384-well white low volume plate (Greiner, Cat #784075) using Labcyte ECHO550. 1×10^5 cells/mL HEK293/GLP1R/CRE-LUC(HD Biosciences) cell suspensions prepared with assay buffer [DPBS containing 0.5 mM IBMX(Sigma, Cat #15879) and 0.1% BSA(GENVIEW, Cat #FA016-100 g)], 10 μL cell suspensions were added to each well of previous generated assay plate which already contains 50 nL compound at 200× concentration using ThermoFisher Multidrop Combi (1000 cells/well). Seal the plate and incubate at 37° C. with 5% CO2 for 30 min.
After incubation the cAMP assay signal was generated using cAMP dynamic 2 Kit (Cisbio). 5 μL cAMP-d2 working solution was added to each well, followed with 5 μL Anti-cAMP antibody-cryptate working solution added to each well using ThermoFisher Multidrop Combi. Incubate at room temperature for 1 hour protected from light. […] (Method 3)

[1] = read-out: GLP1R cAMP Stimulation DR: EC50 (nM) [Species: Human, Assay Cell Line: HDB]
[2] = read-out: GLP1R cAMP Stimulation DR: pEC50 (M) [Species: Human, Assay Cell Line: HDB] (converted)

Sequence of GLP-1 Receptor (P43220 24-463): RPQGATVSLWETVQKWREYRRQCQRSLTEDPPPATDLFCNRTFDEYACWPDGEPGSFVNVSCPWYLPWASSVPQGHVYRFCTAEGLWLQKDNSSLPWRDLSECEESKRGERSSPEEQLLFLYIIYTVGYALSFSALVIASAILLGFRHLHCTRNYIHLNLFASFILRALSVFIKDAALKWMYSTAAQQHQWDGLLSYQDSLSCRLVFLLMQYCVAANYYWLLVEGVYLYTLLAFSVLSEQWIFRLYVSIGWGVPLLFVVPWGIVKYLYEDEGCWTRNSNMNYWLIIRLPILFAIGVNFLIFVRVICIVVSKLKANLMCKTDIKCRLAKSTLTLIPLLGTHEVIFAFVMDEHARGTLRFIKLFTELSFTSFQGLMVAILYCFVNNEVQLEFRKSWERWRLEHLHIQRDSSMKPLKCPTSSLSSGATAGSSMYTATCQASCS

Structure (SMILES)	EC50 [1] [nM]	EC50 [2] [nM]
Cc1cc(-n2nc3c(c2-n2ccn(-c4ccc(P(C)(C)=O)cc4)c2=O)[C@H](C)N(C(=O)c2cc4cc(C5CCOC(C)(C)C5)ccc4n2[C@@]2(c4noc(=O)[nH]4)C[C@@H]2C)CC3)cc(C)c1F (stereo partly drawn) [Compound 102a, 3-((1S,2S)-1-(2-((S)-3-(3-(4-(dimethylphosphoryl)phenyl)-2-oxo-2,3-dihydro-1H-imidazol-1-yl)-2-(4-fluoro-3,5-dimethylphenyl)-4-methyl-4,5,6,7-tetrahydro-2H-pyrazolo[4,3-c]pyridine-5-carbonyl)-5-(2,2-dimethyltetrahydro-2H-pyran-4-yl)-1H-indol-1-yl)-2-methylcyclopropyl)-1,2,4-oxadiazol-5 (4H)-one]	< 0.1	≤ 0.1
CCP(=O)(CC)c1ccc(-n2ccn(-c3c4c(nn3-c3cc(C)c(F)c(C)c3)CCN(C(=O)c3cc5cc([C@H]6CCOC(C)(C)C6)ccc5n3[C@@]3(c5noc(=O)[nH]5)C[C@@H]3C)[C@H]4C)c2=O)cc1 [Compound 130b, 3-((1S,2S)-1-(2-((S)-3-(3-(4-(diethylphosphoryl)phenyl)-2-oxo-2,3-dihydro-1H-imidazol-1-yl)-2-(4-fluoro-3,5-dimethylphenyl)-4-methyl-4,5,6,7-tetrahydro-2H-pyrazolo[4,3-c]pyridine-5-carbonyl)-5-((S)-2,2-dimethyltetrahydro-2H-pyran-4-yl)-1H-indol-1-yl)-2-methylcyclopropyl)-1,2,4-oxadiazol-5 (4H)-one]	< 0.1	≤ 0.1
CNc1cc(-n2ccn(-c3c4c(nn3-c3cc(C)c(F)c(C)c3)CCN(C(=O)c3cc5cc(C6CCOCC6)ccc5n3[C@@]3(c5noc(=O)[nH]5)C[C@@H]3C)[C@H]4C)c2=O)ccc1P(C)(=O)C(C)(C)C (stereo partly drawn) [Compound 131a, 3-((1S,2S)-1-(2-((4S)-3-(3-(4-(tert-butyl(methyl)phosphoryl)-3-(methylamino)phenyl)-2-oxo-2,3-dihydro-1H-imidazol-1-yl)-2-(4-fluoro-3,5-dimethylphenyl)-4-methyl-4,5,6,7-tetrahydro-2H-pyrazolo[4,3-c]pyridine-5-carbonyl)-5-(tetrahydro-2H-pyran-4-yl)-1H-indol-1-yl)-2-methylcyclopropyl)-1,2,4-oxadiazol-5 (4H)-one]	0.1 to 0.2	0.1 to 1
CCP(=O)(CC)c1ccc(-n2ccn(-c3c4c(nn3-c3cc(C)c(F)c(C)c3)CCN(C(=O)c3cc5cc(C6CCOCC6)ccc5n3[C@@]3(c5noc(=O)[nH]5)C[C@@H]3C)[C@H]4C)c2=O)cc1C(F)F [Compound 142a, 3-((1S,2S)-1-(2-((S)-3-(3-(4-(diethylphosphoryl)-3-(difluoromethyl)phenyl)-2-oxo-2,3-dihydro-1H-imidazol-1-yl)-2-(4-fluoro-3,5-dimethylphenyl)-4-methyl-4,5,6,7-tetrahydro-2H-pyrazolo[4,3-c]pyridine-5-carbonyl)-5-(tetrahydro-2H-pyran-4-yl)-1H-indol-1-yl)-2-methylcyclopropyl)-1,2,4-oxadiazol-5 (4H)-one]	< 0.1	≤ 0.1
CNc1cc(-n2ccn(-c3c4c(nn3-c3cc(C)c(F)c(C)c3)CCN(C(=O)c3cc5cc(C6CCOCC6)ccc5n3C3(c5noc(=O)[nH]5)CC3)[C@H]4C)c2=O)ccc1P(C)(=O)C(C)(C)C (stereo partly drawn) [Compound 149a, 3-(1-(2-((4S)-3-(3-(4-(tert-butyl(methyl)phosphoryl)-3-(methylamino)phenyl)-2-oxo-2,3-dihydro-1H-imidazol-1-yl)-2-(4-fluoro-3,5-dimethylphenyl)-4-methyl-4,5,6,7-tetrahydro-2H-pyrazolo[4,3-c]pyridine-5-carbonyl)-5-(tetrahydro-2H-pyran-4-yl)-1H-indol-1-yl)cyclopropyl)-1,2,4-oxadiazol-5 (4H)-one]	0.1 to 0.2	0.1 to 1
